This note sets out measurements from patent publication US8445510B2, “Fused bicyclic kinase inhibitors” (OSI Pharmaceuticals, LLC, priority 2011, dated 2013).

One experiment concerns Karpas-299 cells. Put plainly: Karpas-299 cell proliferation assay (CellTiter-Glo). Type of experiment: cell-based. The conditions noted are these: Homo sapiens, 72 h; Karpas-299 cell line (NPM-ALK); 3 days incubation; at least duplicate experiments; read-out: Prolif. IC50. On the technique in general: In ATP-based viability assays light output follows the ATP content of the culture.

The target in another experiment is T1, Aurora B (Homo sapiens, UniProt Q96GD4).
T1 construct: HT-29 cells grown in complete growth media
T1 sequence (Q96GD4 whole entry): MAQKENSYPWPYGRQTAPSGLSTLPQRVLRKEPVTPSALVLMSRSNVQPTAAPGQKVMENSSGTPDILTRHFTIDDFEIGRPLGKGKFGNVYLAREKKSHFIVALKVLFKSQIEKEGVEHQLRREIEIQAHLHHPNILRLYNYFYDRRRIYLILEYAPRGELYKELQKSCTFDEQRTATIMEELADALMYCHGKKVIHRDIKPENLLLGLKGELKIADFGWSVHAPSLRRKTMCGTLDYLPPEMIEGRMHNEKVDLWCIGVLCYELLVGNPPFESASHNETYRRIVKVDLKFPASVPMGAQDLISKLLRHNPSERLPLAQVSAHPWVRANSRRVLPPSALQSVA
Put plainly: Aurora B cell mechanistic assay (HT-29), phospho-Histone H3 (Ser10) ELISA. Type of experiment: cell-based. To be noted: HT-29 cell line; inhibition of phospho-Histone H3 (Ser10); at least duplicate experiments (italicized if single experiment); read-out: Aurora B mech IC50. The procedure, abridged:
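HT-29 cells treated 1 h at 37 °C with serially diluted compound, then 100 nM Calyculin A added for 30 min. Lysates assayed by phospho-Histone H3 (Ser10) ELISA at 450 nm; normalized to DMSO (100%) and a reference Aurora B inhibitor (full inhibition); IC50 by four-parameter fit.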
Background: ELISA stands for enzyme-linked immunosorbent assay.

As usually defined, the IC50 is the concentration that gives 50% inhibition.

Consider `CNC(=O)[C@H]1CC[C@H](n2nc(C)c(-c3cnc4[nH]cc([C@H](C)c5c(OC)ccc(F)c5Cl)c4c3)c2C)CC1` [Example 24, trans-4-(4-{3-[(1S)-1-(2-Chloro-3-fluoro-6-methoxyphenyl)ethyl]-1H-pyrrolo[2,3-b]pyridin-5-yl}-3,5-dimethyl-1H-pyrazol-1-yl)-N-methylcyclohexanecarboxamide], for which the results for the IC50 in the experiment with Karpas-299 cells and at Aurora B were at most 0.05 µM and over 1 µM, respectively.

On to `COc1ccc(F)c(Cl)c1[C@@H](C)c1c[nH]c2ncc(-c3cn([C@H]4CC[C@H](O)CC4)nc3C)cc12` [Example 28, trans-4-(4-{3-[(1S)-1-(2-Chloro-3-fluoro-6-methoxyphenyl)ethyl]-1H-pyrrolo[2,3-b]pyridin-5-yl}-3-methyl-1H-pyrazol-1-yl)cyclohexanol], for which the IC50 with Karpas-299 cells is at most 0.05 µM; on Aurora B it was 0.05 to 0.2 µM.

`COc1ccc(F)c(Cl)c1[C@@H](C)c1c[nH]c2ncc(-c3cn([C@H]4CC[C@H](C(=O)N(C)C)CC4)nc3C)cc12` [Example 23, trans-4-(4-{3-[(1S)-1-(2-chloro-3-fluoro-6-methoxyphenyl)ethyl]-1H-pyrrolo[2,3-b]pyridin-5-yl}-3-methyl-1H-pyrazol-1-yl)-N,N-dimethylcyclohexanecarboxamide]: the values for the 50% inhibitory concentration (IC50) in the experiment on Karpas-299 cells and at Aurora B were at most 0.05 µM and 0.05 to 0.2 µM, respectively.
